This note sets out measurements from ChEMBL document CHEMBL4665869, “New thiazolopyrimidine as anticancer agents: Synthesis, biological evaluation, DNA binding, molecular modeling and ADMET study” (Bioorg Med Chem Lett, 2020).

Converted amounts (≈) assume the structure as drawn.

The target of the experiment is DNA. Description: Displacement of methyl green from DNA (unknown origin) assessed as DNA intercalation after 24 hrs by colorimetric assay. Format: nucleic-acid assay.
For `Clc1ccc(/C=C/C2=CC(c3ccc(Cl)cc3)N3C=CSC3=N2)cc1` (configuration not stated), the IC50 (commonly the concentration needed to halve the response being measured) is 56.33 µg/mL (≈ 146 µM).

As to `CCOC(=O)C1=CSC2=NC(/C=C/c3cccs3)=CC(c3cccs3)N12` (configuration not stated), the IC50 turned out to be 66.01 µg/mL (≈ 165 µM).

Take `CC1=CSC2=NC(/C=C/c3ccc(Cl)cc3)=CC(c3ccc(Cl)cc3)N12` (configuration not stated): the IC50 came to 50.91 µg/mL (≈ 127 µM).

Take `COc1ccc(/C=C/C2=CC(c3ccc(OC)cc3)N3C(C)=CSC3=N2)cc1` (configuration not stated): the IC50 stood at 42.5 µg/mL (≈ 109 µM).

For the compound `CC1=CN2C(=NC(/C=C/c3cccs3)=CC2c2cccs2)S1` (configuration not stated), the IC50 stood at 76.15 µg/mL (≈ 222 µM).

Regarding `COc1cc(/C=C/C2=CC(c3cc(OC)c(OC)c(OC)c3)N3C=CSC3=N2)cc(OC)c1OC` (configuration not stated), the IC50 stood at 55.42 µg/mL (≈ 112 µM).

Turning to `COc1ccc(/C=C/C2=CC(c3ccc(OC)cc3)N3C=C(C)SC3=N2)cc1` (configuration not stated), the IC50 worked out at 41.37 µg/mL (≈ 106 µM).

With `CCOC(=O)C1=CSC2=NC(/C=C/c3ccc(C)cc3)=CC(c3ccc(C)cc3)N12` (configuration not stated), the IC50 came to 31.49 µg/mL (≈ 75.6 µM).

Take `CC1=CSC2=NC(/C=C/c3ccc(C)cc3)=CC(c3ccc(C)cc3)N12` (configuration not stated): the IC50 stood at 83.41 µg/mL (≈ 233 µM).

With `COc1ccc(/C=C/C2=CC(c3ccc(OC)c(OC)c3)N3C=C(C)SC3=N2)cc1OC` (configuration not stated), the IC50 amounted to 58.32 µg/mL (≈ 129 µM).

As to `Cc1ccc(/C=C/C2=CC(c3ccc(C)cc3)N3C=CSC3=N2)cc1` (configuration not stated), the IC50 was determined as 62.74 µg/mL (≈ 182 µM).

In the case of `CCOC(=O)C1=CSC2=NC(/C=C/c3ccc(OC)cc3)=CC(c3ccc(OC)cc3)N12` (configuration not stated), the half-maximal inhibitory concentration (IC50) was found to be 28.38 µg/mL (≈ 63.3 µM).
